Laboratory results as given in patent US11370841B2, “Methods of treating fibroblast growth factor 19-mediated cancers and tumors” (NGM Biopharmaceuticals, Inc., priority 2016, dated 2022).

Legend:
[1] = system: primary mouse hepatocytes; assay: In vitro pSTAT3 activation in primary mouse hepatocytes; format: cell-based
Protocol: Primary mouse hepatocytes were isolated from 8-10 week old wild type mice (BioReclamation/IVT). Cells were diluted in attachment media, and cells were plated on collagen-coated 6-well plate (Becton Dickinson). Four hours later, cells were changed into M199 media supplemented with 10% FBS, 2 mM glutamine, 100 unit/ml penicillin, 100 unit/ml streptomycin, and cultured for 16 hours at 37° C. When indicated, 50 ng/ml FGF19 protein or 50 ng/ml mouse IL-6 (Peprotech) were added.
Cell extracts were prepared in 50 mM Tris-Cl, PH 7.2, 150 mM NaCl, 1% NP-40, 0.1% SDS, 0.5% sodium deoxycholate supplemented with a protease inhibitor cocktail (Roche) and phosphatase inhibitors (Sigma, phosphatase inhibitor cocktail set 2 and set 3), and protein concentrations were determined by BCA protein assay (Thermo Scientific).
Immunoblotting. Cell or tissue lysates were mixed with 4×SDS sample loading buffer (50 mM Tris-Cl, pH6.8, 2.5% SDS, urea, 4% β-mercaptoethanol), heated for 10 minutes at 95° C., and separated on 4-20% SDS-polyacrylamide gels (Life Technologies) in 1×MOPS running buffer. Proteins were transferred onto PVDF membranes (GE Healthcare). Membranes were blocked in TBST buffer (20 mM Tris-Cl, pH 7.6, 137 mM NaCl, 0.1% Tween-20) containing 5% non-fat dry milk for 1 hour at room temperature, and incubated with anti-pSTAT3^Y705, anti-total STAT3, anti-pERK, anti-total ERK, or anti-β-actin antibodies in blocking buffer at 4° C. overnight. Membranes were washed in TBST extensively, and bound proteins were detected with horseradish peroxidase-conjugated goat-anti-mouse IgG or goat-anti-rabbit IgG antibodies (GE Healthcare) for 1 hour at room temperature. […]
To investigate an in vitro direct effect of FGF19 on STAT3 activation in isolated hepatocytes, pSTAT3^Y705 levels in primary cultures of hepatocytes upon FGF19 stimulation were analyzed by western blotting. […] Cell lysates were prepared at the indicated time points following FGF19 stimulation and analyzed for phosphorylation of the various proteins.

hepatocytes = assay: In vivo BrdU incorporation (osmotic pump, 6 days); set-up: species or system mice
Protocol: In vivo BrdU incorporation. For surgical implant, mice were anesthetized with isoflurane, and osmotic pumps (#1002, Alzet) releasing 8.5 mg/kg/day 5-bromo-2-deoxyuridine (BrdU, Sigma) and 0.4 mg/kg/day FGF19 protein were implanted subcutaneously on the back on day 1. Incisions were closed with surgical clippers and 3-0 silk suture. Mice were euthanized on day 6, and serum and livers were collected for exposure and BrdU incorporation analysis.
Histology and immunohistochemistry. […] Hematoxylin and eosin staining was performed using standard methods. […] When indicated, sections were counterstained with hematoxylin.
Flow cytometry. For quantification of BrdU incorporation by flow cytometry, livers were minced in RPMI media containing 0.1% collagenase for 30 minutes at 37° C. and passed through 70 μm filter. […]. Cells were analyzed on a BD Caliper flow cytometer and data were collected using CellQuest software and analyzed using Flowjo program.
To determine the direct effect of FGF19 on hepatocyte proliferation in a cell autonomous manner, the proliferative effects of FGF19 in vivo and in isolated hepatocytes were compared by assessing the incorporation of 5-bromo-2-deoxyuridine (BrdU) into newly synthesized DNA. FGF19 was administered at a concentration of 0.4 mg/kg/day and BrdU was administered at 8.5 mg/kg/day. After being administered to mice for six days through an osmotic pump, recombinant FGF19 protein induced incorporation of BrdU into hepatocytes as evidenced by immunohistochemical staining (with hematoxylin) and by flow cytometry analysis (hepatocytes were stained with 7-AAD and anti-BrdU-APC) (FIGS. 2A and 2B). […] Plasma concentrations of FGF19 were 5.2±1.2 ng/mL at the end of the study (FIG. 2C).

[2] = system: primary mouse hepatocytes; assay: In vitro BrdU incorporation in primary mouse hepatocytes; format: cell-based; details: 48 hours incubation
Protocol: (§1) FIGS. 2A-2E depict non-cell autonomous promotion of hepatocellular proliferation by FGF19. 11 week old mice (n=5 per group) were implanted with osmotic pumps releasing BrdU (8.5 mg/kg/day) and FGF19 protein (0.4 mg/kg/day). Livers were harvested 6 days post-implant. (FIG. 2A) Flow cytometry analysis of BrdU-labeled livers is shown. Representative histograms from hepatocytes stained with 7-ADD and anti-BrdU-APC are shown. (FIG. 2B) BrdU-positive hepatocytes as a percentage of total hepatocytes from vehicle (V)-treated (n=5) or FGF19-treated (n=5) mice were quantified by flow cytometry. (FIG. 2C) Shown are circulating FGF19 levels on day 6 post-implant of osmotic pumps. (FIG. 2D) Lack of proliferative effects of FGF19 on primary mouse hepatocytes. Primary cultures of hepatocytes isolated from mouse liver were incubated with recombinant FGF19 protein at the indicated concentrations for 48 hours and BrdU was added during the last 20 hours of incubation. BrdU incorporation was determined using a luminescence method. Mouse hepatocyte growth factor (mHGF) was included as a positive control. RLU, relative luminescence unit. (FIG. 2E) Lack of proliferative effects of FGF19 on primary human hepatocytes. Primary cultures of hepatocytes isolated from human liver were incubated with recombinant FGF19 protein. Human hepatocyte growth factor (hHGF) was included as a positive control. […]

[3] = system: primary human hepatocytes; assay: In vitro BrdU incorporation in primary human hepatocytes; format: cell-based; details: purified primary human hepatocytes
Protocol: as §1

hepatic mRNA levels = assay: Hepatic gene expression in FGF19-treated db/db mice (qRT-PCR)
[4] = FGF19 protein 1 mg/kg i.p., 2 hours

FGF19: Fibroblast growth factor 19, mature human 194 amino acid polypeptide (SEQ ID NO: 1); recombinant protein or AAV-expressed
STAT3 phosphorylation (pSTAT3 Y705) by western blotting ([1]; isolated mouse hepatocytes, 50 ng/ml): did not enhance STAT3 phosphorylation
Phosphorylation of ERK1 and ERK2 ([1]; primary cultures of mouse hepatocytes): apparent
BrdU-positive cells in liver (flow cytometry) (hepatocytes; 20 μg per mouse per day (0.4 mg/kg/day) by osmotic pump, six days): 9.2+1.5%
PCNA and Ki-67 expression (hepatocytes; FGF19-treated mice, osmotic pump, six days): higher
Plasma concentrations of FGF19 at the end of the study (hepatocytes; osmotic pump 0.4 mg/kg/day, day 6): 5.2 ± 1.2 ng/mL
BrdU signal [2]: no increase
Proliferative effect (BrdU incorporation) [3]: lack of direct proliferative effect
Hepatic mRNA levels of IL-6 (hepatic mRNA levels; [4]): increased significantly
RNA levels of IL-11, LIF, OSM, CNTF and CTF1 (hepatic mRNA levels; [4]): remained unchanged or undetectable
Hepatic Cyp7a1 mRNAs (hepatic mRNA levels; acute FGF19 treatment): efficiently suppressed
